The subject of data set [1] is GLP‐1R of Beta‐TC‐6 cells. The data set is described as follows: Affinity test (cell-based competitive flow cytometric receptor binding assay). Particulars: 10 nM fluorescein-labelled Ex-4, 0.5 h, 310 K, compared to Ex4-PEG-MA. Here is the method: The binding ability of γ‐PGA‐Ex‐4 compounds to GLP‐1R expressed on β‐cells surface was examined in a competitive flow cytometric assay. This receptor binding assay was developed based on similar, receptor targeting studies, of Ex‐4 targeting[85] and folate targeting.[86] The relative competition capability to the target receptor, compared to Ex4‐PEG‐MA, was evaluated among γ‐PGA‐Ex‐4 conjugates at different degrees of functionalization. The obtained values were normalized with respect to the degree of functionalization of each bioconjugate, so that the comparison is not affected by the different amount of Ex‐4 molecules on each polymeric chain. GLP‐1R positive Beta‐TC‐6 cells were co‐incubated with fluorescein‐labelled Ex‐4 and the different Ex‐4 formulations, γ‐PGA‐Ex‐4‐1, γ‐PGA‐Ex‐4‐2, γ‐PGA‐Ex‐4‐3, and Ex4‐PEG‐MA or Ex‐4 as references. […]
5×10^5 cells were incubated with 10 nм fluorescein‐labelled Ex‐4 (Eurogentec) alone or together with the tested compounds at 310 K in RPMI supplemented with 10 % FBS. After 0.5 h the cells were washed with ice cold PBS and fluorescence of the cells was measured by flow cytometer (BD FACSCalibur). […] The binding ability of γ‐PGA‐Ex‐4 conjugates and peptides to the GLP‐1R positive cells was calculated based on the inhibition of the fluorescent Ex‐4 derived signal. […]
For orientation: In flow cytometry, cells or beads pass a laser one at a time.

For data set [2], the system named is dipeptidyl peptidase‐IV (DPP‐IV). As to conditions: natural ligand GLP-1 rapidly degraded by DPP-IV; cited from earlier work. The text has this: Type 2 diabetes is an unresolved pathology, related to genetic and environmental factors, which gradually decline the pancreatic islet functionality, finally culminating in a pathological phenomenon defined as hyperglycemia.[1] Pancreatic β‐cells take on a key role in the so‐called glucose homeostasis by secreting insulin and amylin.[2] A wide range of pharmacologic treatments have been developed, but none of them is considered the ultimate solution.[3] The classic target for diabetes 2 therapies is GLP‐1R, that stimulates insulin secretion upon interaction with its natural ligand, gluca ...

Regarding “HGEGTFTSDLSKQMEEE‐AVRLFIEWLys(PEG4‐Mal)KNGGPSSGAPPP S‐NH2 [Ex‐4‐PEG‐MA, exendin‐4(Lysine27‐PEG4‐maleimide), purchased from Caslo ApS]”, in data set [1], the “Binding / affinity towards GLP‐1R positive β‐cells (in words)” value is reported as “still capable to bind GLP‐1R”.
Turning to glucagon‐like peptide 1 [GLP‐1], the “time to degradation by DPP‐IV” value in data set [2] is under 2 min.

These data come from publication PMC9542156, “Multivalent γ‐PGA‐Exendin‐4 Conjugates to Target Pancreatic β‐Cells” (Chembiochem, 2022).
